Assay results as given in ChEMBL document CHEMBL1201862, “PubChem BioAssay data set” (2004).
Calls of active or inactive are those of the source.

Tests used:
[1] = biological target: T1, Probable nicotinate-nucleotide adenylyltransferase (Staphylococcus aureus (strain N315), UniProt P65502); format: functional, Staphylococcus aureus subsp. aureus N315; conditions: read-out: IC50_Mean;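 as to IC50 Mean: confirmatory dose-response retesting of NadD inhibitor hits first found in an ultra-high-throughput screen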
[2] = biological target: T1, Probable nicotinate-nucleotide adenylyltransferase; format: functional, Staphylococcus aureus subsp. aureus N315
[3] = biological target: Dual specificity protein phosphatase 3 (Homo sapiens, UniProt P51452); experiment: VHR phosphatase inhibition, dose response, selectivity assay for STEP inhibitor project, biochemical (AID 602374); format: functional; conditions: read-out: IC50_Mean
[4] = biological target: Tyrosine-protein phosphatase non-receptor type 5 (Homo sapiens, UniProt P54829); experiment: STEP phosphatase inhibitors, confirmation, biochemical, fluorescence intensity, uHTS hits (AID 602372); format: functional; conditions: read-out: IC50_Mean
[5] = biological target: T2, Small ubiquitin-related modifier 1 (Homo sapiens, UniProt P63165); experiment: inhibitors of SUMO1 partner interactions, dose response, biochemical, FRET (AID 624383); format: functional; conditions: read-out: IC50_Mean
[6] = biological target: Tyrosine-protein phosphatase non-receptor type 11 (Homo sapiens, UniProt Q06124); experiment: SHP2 phosphatase inhibition, dose response, selectivity assay for STEP inhibitor project, biochemical (AID 602367); format: functional; conditions: read-out: IC50_Mean
[7] = biological target: T3, Calpain-2 catalytic subunit (Sus scrofa, UniProt P43367); experiment: pig calpain II inhibitor potency, dose response, biochemical, fluorogenic peptide substrate (AID 1420); format: functional
T3 sequence (P43367 whole entry): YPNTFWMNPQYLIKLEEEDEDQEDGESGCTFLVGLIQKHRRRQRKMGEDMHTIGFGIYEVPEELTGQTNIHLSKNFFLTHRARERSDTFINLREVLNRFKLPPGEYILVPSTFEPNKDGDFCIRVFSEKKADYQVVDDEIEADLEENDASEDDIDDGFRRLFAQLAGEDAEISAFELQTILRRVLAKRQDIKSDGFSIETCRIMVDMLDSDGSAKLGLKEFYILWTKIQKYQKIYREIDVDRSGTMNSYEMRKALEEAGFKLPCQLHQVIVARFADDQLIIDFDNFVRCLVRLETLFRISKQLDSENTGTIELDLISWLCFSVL

[8] = biological target: Eukaryotic translation initiation factor 4E (Mus musculus, UniProt P63073); experiment: eIF4E–eIF4G protein interaction inhibitors, dose response, biochemical, TR-FRET (AID 855); format: functional;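 also: potency for disrupting eIF4E binding to eIF4GI seen as loss of FRET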
[9] = biological target: T2, Small ubiquitin-related modifier 1; experiment: inhibitors of SUMO1 peptide binding, dose response, biochemical, fluorescence polarization, uHTS hits (AID 624382); format: functional; conditions: read-out: IC50_Mean
[10] = StAR promoter reporter inhibition counter-screen, dose response, counter-screen for LRH-1 inverse agonist project, cell-based, luminescence, luciferase reporter (AID 651969); format: functional
Steroidogenic factor 1 = Steroidogenic factor 1 (Homo sapiens, UniProt Q13285); experiment: Counterscreen for inverse agonists of the liver receptor homolog-1 (LRH-1; NR5A2): Luminescence-based cell-based high throughput dose response assay to identify inverse agonists of the Steroidogenic Factor 1 Nuclear Receptor (SF1; NR5A1).; format: functional
[11] = biological target: Nuclear receptor subfamily 5 group A member 2 (Homo sapiens, UniProt O00482); format: functional, cell-based;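 also: HEK293T cells transfected with LRH-1 and a StAR promoter luciferase reporter; potency for inhibitors that lower LRH-1 driven reporter light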
[12] = biological target: Adenosylmethionine-8-amino-7-oxononanoate aminotransferase (Mycobacterium tuberculosis, UniProt P9WQ81); experiment: Mycobacterium tuberculosis BioA enzyme inhibitor Measured in Biochemical System Using Plate Reader - 2163-02_Inhibitor_Dose_CherryPick_Activity.; format: functional, Mycobacterium tuberculosis UT205
[13] = biological target: 72 kDa type IV collagenase (Homo sapiens, UniProt P08253); experiment: Dose Response validation of uHTS RPN11 inhibitor hits using a MMP-2 Fluorescence assay.; format: functional
[14] = system: Streptococcus sp. 'group A'; experiment: growth inhibition of control SK(-) GAS strain, dose response, counter-screen for streptokinase expression inhibitor project, luminescence, kanamycin, BacTiterGlo, confirmation (AID 1900); format: functional, organism-based
Streptococcus = experiment: Group A Streptococcus viability loss, dose response, counter-screen for streptokinase expression inhibitor project, luminescence, BacTiterGlo (AID 1915); format: functional, organism-based;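 also: potency for reduction of bacterial viability or growth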
Streptokinase A = biological target: T4, Streptokinase A (Streptococcus pyogenes serotype M1, UniProt P10520); experiment: S. pyogenes streptokinase expression inhibitors, potency, dose response, plasminogen activation absorbance, OD405 (AID 1914); format: functional, Streptococcus pyogenes M1 GAS;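 also: secreted streptokinase activity via plasminogen activation per viability signal from cell pellet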
T4 sequence (P10520 whole entry): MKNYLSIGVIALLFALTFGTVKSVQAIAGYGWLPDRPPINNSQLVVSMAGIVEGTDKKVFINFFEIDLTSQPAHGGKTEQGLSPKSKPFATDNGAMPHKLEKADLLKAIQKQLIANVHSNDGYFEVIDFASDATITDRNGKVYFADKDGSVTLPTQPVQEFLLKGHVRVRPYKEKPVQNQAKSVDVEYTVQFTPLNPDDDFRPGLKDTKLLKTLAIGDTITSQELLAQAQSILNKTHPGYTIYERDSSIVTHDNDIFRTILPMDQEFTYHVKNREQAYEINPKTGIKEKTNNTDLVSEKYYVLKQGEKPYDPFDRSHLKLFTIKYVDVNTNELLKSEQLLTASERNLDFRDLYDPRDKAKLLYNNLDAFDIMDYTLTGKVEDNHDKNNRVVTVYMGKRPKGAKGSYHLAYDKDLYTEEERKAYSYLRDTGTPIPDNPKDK

Protein RecA = biological target: T5, Protein RecA (Mycobacterium tuberculosis, UniProt P9WHJ3); experiment: Fluorescence Cell-Free Homogeneous Dose Retest to Identify Inhibitors of RecA-Intein Splicing Activity. [Related pubchem assays (depositor defined):AID2097, AID2223, AID489010, AID492950]; format: functional
T5 sequence (P9WHJ3 whole entry): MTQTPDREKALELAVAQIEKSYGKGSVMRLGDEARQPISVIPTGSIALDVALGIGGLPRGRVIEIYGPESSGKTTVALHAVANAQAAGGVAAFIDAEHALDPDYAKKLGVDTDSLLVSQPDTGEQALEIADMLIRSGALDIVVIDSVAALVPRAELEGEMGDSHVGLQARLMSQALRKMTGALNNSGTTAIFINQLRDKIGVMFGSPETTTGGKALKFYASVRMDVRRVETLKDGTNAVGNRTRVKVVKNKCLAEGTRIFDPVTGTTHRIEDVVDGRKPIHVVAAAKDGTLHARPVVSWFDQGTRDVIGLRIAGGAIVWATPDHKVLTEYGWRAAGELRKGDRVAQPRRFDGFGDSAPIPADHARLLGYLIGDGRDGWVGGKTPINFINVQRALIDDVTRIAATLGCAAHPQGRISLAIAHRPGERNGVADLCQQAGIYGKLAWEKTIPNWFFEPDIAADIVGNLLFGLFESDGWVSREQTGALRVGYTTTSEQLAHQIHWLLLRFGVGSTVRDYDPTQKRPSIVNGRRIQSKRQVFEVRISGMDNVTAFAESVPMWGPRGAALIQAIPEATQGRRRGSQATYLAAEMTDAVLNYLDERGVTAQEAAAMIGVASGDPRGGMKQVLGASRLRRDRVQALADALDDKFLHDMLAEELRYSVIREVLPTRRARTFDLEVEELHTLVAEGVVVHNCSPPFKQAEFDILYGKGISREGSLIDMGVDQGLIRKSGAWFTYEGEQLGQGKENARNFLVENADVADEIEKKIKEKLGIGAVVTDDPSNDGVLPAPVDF

[15] = biological target: T6, Replicative DNA helicase DnaB (Mycobacterium tuberculosis, UniProt P9WMR3); experiment: DnaB intein splicing inhibitors, dose response, biochemical, cell-free fluorescence (AID 449749); format: functional
T6 sequence (P9WMR3 whole entry): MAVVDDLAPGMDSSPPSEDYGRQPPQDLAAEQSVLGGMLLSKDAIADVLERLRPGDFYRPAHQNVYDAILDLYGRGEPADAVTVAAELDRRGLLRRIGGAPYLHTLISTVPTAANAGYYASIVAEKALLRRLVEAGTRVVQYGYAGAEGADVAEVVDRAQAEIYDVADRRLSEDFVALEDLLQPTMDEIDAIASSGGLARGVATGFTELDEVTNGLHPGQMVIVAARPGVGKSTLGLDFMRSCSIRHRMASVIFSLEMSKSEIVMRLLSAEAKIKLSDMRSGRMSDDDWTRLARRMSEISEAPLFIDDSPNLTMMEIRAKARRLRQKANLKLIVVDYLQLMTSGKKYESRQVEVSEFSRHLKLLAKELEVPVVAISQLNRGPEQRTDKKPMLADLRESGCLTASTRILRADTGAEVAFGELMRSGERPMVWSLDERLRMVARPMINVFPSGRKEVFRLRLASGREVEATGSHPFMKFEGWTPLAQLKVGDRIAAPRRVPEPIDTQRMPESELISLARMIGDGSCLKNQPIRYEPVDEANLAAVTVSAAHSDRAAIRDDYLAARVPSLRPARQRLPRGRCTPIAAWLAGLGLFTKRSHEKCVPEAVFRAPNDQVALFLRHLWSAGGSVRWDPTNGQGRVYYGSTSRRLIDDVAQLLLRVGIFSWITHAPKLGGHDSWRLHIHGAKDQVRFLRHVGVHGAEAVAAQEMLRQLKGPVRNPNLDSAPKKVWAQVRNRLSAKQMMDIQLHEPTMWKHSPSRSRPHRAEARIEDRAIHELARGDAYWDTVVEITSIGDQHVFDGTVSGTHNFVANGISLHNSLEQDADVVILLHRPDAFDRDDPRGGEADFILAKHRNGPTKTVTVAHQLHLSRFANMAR

[16] = biological target: T7, Zinc finger protein mex-5 (Caenorhabditis elegans, UniProt Q9XUB2); experiment: MEX-5/TCR-2 RNA interaction inhibitors, dose response, biochemical, C. elegans, fluorescence polarization (AID 1960)
T7 sequence (Q9XUB2 whole entry): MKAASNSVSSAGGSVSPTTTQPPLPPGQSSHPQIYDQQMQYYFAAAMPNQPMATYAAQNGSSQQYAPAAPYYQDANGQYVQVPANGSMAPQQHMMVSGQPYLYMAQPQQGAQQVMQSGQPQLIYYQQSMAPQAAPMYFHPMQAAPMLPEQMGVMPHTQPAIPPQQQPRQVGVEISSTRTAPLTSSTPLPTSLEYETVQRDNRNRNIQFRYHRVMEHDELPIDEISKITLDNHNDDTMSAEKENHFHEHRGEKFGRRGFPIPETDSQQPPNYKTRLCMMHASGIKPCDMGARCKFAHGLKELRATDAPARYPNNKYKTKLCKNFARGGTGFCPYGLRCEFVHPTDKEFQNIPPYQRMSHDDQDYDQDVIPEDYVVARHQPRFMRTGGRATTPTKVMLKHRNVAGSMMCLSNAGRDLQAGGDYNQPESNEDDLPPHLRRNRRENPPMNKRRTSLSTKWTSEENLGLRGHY

Prothrombin = Prothrombin (Bos taurus, UniProt P00735); experiment: thrombin inhibition, dose response, biochemical, fluorescence polarization, uHTS hits (AID 602369); format: functional
[17] = biological target: T8, RNA-binding protein pos-1 (Caenorhabditis elegans, UniProt G5EF15); experiment: inhibitors of POS-1/mex-3 RNA binding, dose response, biochemical, fluorescence polarization (AID 1964);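 also: purified POS-1 fused to maltose binding protein made in E. coli; potency of compounds blocking POS-1 binding to fluorescent RNA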
T8 sequence (G5EF15 whole entry): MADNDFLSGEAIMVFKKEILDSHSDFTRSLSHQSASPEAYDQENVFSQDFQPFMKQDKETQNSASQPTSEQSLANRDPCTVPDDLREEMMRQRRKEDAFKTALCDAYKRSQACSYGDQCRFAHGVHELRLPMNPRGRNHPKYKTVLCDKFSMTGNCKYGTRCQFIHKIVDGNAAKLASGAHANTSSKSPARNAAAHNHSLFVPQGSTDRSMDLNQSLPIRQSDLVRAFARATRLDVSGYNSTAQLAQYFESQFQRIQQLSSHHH

[18] = biological target: 26S proteasome non-ATPase regulatory subunit 14 (Homo sapiens, UniProt O00487); experiment: inhibition of proteasome subunit RPN11 – biochemical, fluorescence polarization, uHTS hits, confirmation (AID 602368); format: functional
26S proteasome non-ATPase regulatory subunit 14, sequence (O00487 whole entry): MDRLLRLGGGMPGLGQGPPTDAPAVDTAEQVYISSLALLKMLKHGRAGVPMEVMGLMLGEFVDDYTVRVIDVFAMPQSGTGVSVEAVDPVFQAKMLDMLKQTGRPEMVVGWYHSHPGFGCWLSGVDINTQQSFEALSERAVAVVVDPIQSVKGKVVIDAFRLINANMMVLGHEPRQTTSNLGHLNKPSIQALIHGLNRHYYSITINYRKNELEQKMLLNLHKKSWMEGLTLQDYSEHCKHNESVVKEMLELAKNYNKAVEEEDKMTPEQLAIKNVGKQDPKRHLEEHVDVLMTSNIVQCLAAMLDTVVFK

T1 sequence (P65502 whole entry): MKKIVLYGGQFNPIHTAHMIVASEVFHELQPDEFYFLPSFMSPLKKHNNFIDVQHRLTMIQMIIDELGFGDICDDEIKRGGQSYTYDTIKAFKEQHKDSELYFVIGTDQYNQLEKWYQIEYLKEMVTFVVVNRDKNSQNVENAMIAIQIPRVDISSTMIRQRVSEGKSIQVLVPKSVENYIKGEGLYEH
Nuclear receptor subfamily 5 group A member 2, sequence (O00482 whole entry): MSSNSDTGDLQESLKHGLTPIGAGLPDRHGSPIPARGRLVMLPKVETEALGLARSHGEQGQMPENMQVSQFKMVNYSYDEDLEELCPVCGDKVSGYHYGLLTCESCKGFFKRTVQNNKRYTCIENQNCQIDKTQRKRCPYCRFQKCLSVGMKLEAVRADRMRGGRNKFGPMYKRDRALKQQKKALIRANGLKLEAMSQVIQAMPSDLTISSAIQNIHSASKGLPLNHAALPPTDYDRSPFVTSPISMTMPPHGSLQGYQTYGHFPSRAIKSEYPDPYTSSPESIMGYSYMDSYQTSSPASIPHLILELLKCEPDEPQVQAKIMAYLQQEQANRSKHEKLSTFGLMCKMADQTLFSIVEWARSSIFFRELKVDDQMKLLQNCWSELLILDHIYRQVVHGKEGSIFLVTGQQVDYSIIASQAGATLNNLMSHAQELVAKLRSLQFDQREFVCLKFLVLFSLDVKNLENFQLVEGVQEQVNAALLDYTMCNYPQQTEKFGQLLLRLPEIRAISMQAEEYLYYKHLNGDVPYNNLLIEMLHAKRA
Adenosylmethionine-8-amino-7-oxononanoate aminotransferase, sequence (P9WQ81 whole entry): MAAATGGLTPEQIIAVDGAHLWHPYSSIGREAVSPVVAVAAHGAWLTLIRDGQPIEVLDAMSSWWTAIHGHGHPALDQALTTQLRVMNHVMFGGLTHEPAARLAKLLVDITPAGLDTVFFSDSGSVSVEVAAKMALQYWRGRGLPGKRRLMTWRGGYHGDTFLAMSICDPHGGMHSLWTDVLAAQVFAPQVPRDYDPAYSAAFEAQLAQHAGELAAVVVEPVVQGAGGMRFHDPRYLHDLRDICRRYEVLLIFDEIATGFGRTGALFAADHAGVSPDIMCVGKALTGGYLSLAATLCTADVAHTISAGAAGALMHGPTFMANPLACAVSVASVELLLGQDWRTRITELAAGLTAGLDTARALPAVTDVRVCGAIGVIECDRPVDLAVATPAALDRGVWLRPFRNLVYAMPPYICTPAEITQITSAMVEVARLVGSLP
Steroidogenic factor 1, sequence (Q13285 whole entry): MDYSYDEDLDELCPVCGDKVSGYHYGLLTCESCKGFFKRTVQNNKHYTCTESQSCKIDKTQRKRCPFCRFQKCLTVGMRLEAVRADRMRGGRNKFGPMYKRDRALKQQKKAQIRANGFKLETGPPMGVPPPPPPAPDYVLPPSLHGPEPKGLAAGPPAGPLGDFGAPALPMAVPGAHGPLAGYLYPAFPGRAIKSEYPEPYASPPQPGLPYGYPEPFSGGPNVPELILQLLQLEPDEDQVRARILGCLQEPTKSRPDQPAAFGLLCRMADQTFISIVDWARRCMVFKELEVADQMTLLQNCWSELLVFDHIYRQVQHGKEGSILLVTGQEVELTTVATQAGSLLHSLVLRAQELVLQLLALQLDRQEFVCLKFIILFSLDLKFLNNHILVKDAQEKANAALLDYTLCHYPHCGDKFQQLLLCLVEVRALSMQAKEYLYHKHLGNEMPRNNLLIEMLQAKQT
T2 sequence (P63165 whole entry): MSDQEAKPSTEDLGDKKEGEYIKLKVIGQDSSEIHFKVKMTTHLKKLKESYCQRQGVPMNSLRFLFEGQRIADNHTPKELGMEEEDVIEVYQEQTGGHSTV
Dual specificity protein phosphatase 3, sequence (P51452 whole entry): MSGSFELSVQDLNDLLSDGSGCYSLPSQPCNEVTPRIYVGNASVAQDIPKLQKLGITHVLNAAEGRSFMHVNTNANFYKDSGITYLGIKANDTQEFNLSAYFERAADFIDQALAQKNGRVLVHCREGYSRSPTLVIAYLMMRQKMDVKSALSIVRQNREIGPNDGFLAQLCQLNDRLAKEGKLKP
Eukaryotic translation initiation factor 4E, sequence (P63073 whole entry): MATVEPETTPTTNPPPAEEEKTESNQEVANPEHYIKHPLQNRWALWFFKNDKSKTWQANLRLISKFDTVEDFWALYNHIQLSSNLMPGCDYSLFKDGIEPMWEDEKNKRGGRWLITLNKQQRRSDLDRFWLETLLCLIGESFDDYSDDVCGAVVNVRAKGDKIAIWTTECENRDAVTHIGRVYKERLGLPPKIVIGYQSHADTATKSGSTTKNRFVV
72 kDa type IV collagenase, sequence (P08253 whole entry): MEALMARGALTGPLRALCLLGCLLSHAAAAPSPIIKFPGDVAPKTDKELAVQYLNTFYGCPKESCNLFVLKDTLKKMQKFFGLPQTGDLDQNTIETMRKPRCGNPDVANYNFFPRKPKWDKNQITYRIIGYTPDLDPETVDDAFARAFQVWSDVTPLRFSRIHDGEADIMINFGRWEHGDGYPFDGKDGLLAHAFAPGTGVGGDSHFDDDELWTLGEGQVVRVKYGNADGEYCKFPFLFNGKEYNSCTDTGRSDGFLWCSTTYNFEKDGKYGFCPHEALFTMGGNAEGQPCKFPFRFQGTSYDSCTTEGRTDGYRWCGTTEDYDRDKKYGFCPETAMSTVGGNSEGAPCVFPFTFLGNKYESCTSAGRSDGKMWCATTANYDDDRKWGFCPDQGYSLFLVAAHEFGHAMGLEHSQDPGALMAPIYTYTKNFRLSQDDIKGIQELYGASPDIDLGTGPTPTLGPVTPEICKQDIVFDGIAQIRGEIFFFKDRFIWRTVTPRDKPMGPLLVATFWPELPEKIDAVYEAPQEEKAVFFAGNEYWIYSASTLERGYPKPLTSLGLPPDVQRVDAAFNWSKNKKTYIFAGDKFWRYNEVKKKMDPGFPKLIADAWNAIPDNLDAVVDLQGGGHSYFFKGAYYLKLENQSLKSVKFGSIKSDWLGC
Tyrosine-protein phosphatase non-receptor type 11, sequence (Q06124 whole entry): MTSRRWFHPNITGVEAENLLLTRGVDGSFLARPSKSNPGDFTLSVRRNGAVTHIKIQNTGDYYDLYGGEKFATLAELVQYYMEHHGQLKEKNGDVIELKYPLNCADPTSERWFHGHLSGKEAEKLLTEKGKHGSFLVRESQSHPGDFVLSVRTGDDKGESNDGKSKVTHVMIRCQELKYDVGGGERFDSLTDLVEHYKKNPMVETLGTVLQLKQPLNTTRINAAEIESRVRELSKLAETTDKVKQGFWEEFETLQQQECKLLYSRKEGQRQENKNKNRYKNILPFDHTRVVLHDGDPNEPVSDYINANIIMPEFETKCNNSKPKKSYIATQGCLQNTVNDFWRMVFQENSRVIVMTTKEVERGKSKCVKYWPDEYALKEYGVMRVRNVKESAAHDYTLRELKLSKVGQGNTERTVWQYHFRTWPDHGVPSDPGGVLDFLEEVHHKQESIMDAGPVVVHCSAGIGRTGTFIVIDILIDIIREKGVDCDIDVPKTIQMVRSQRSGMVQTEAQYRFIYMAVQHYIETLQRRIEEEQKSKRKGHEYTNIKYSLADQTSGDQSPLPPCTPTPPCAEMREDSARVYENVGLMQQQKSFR
Tyrosine-protein phosphatase non-receptor type 5, sequence (P54829 whole entry): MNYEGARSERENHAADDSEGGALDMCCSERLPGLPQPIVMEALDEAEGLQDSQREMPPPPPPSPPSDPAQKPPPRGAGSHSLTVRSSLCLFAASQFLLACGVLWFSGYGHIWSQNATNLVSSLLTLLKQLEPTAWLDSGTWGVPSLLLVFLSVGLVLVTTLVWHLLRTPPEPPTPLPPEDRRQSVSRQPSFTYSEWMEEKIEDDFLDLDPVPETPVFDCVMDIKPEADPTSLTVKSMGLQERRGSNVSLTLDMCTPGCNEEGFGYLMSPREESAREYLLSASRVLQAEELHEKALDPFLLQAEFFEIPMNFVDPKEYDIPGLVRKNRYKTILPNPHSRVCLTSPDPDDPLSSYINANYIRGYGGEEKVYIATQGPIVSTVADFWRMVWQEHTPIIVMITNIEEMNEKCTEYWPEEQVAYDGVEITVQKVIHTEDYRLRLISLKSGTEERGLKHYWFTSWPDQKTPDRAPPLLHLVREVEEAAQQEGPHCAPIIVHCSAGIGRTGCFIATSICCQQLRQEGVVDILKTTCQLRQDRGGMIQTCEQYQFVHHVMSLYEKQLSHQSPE

Cc1ccc(C)c(N2CCN(S(=O)(=O)c3ccc4nc(O)c(O)nc4c3)CC2)c1
IC50 [1]: 25.9 µM (active)
IC50 [2]: 5.39 µM (active)

O=C(CSc1nc(-c2ccc(F)cc2)nc2c1Cc1ccccc1O2)Nc1cccc(C(=O)O)c1
IC50 [3]: 0.353 µM (active)
IC50 [4]: 2.26 µM (active)
IC50 [5]: 4.27 µM (active)
IC50 [6]: 0.443 µM (active)
IC50 [7]: > 50 µM (not active)
IC50 [8]: 50 µM (inactive)
IC50 [9]: > 66.6 µM (inactive)

Cc1cccc(C)c1Nc1nnc(SC/C(O)=C(\C#N)c2nc3ccccc3[nH]2)s1
IC50 [1]: 25.2 µM (active)
IC50 [2]: 9.49 µM (active)

COc1ccccc1NC(=O)CN1CCN(CC(=O)Nc2ccc(S(N)(=O)=O)cc2)CC1
IC50 [10]: 35.9 µM (inactive)
IC50 (Steroidogenic factor 1): 6.64 µM (active)
IC50 [11]: 25.9 µM (inactive)

O=C(Nc1cccc(F)c1)C1CCCN(c2cnccn2)C1 (centres undefined)
AC50 [12]: 5.41 µM (active)

O=C(N/N=C/c1cc(Cl)cc([N+](=O)[O-])c1O)c1ccccc1NS(=O)(=O)c1cccs1
IC50 [13]: > 100 µM (inactive)
EC50 [14]: 4.31 µM (active)
EC50 (Streptococcus): 18.9 µM (active)
EC50 (Streptokinase A): > 150 µM (not active)
EC50 (Protein RecA): 67.2 µM (active)
AC50 [15]: 15.9 µM (active)
EC50 [16]: 1.56 µM (inconclusive)
IC50 (Prothrombin): 85.5 µM (active)
EC50 [17]: 282 µM (active)
IC50 [18]: 10.4 µM (active)

CC(=O)c1ccc(NC(=O)C(C)ONC(=N)c2ccccc2)cc1 (centres undefined)
IC50 [10]: 35.9 µM (inactive)
IC50 (Steroidogenic factor 1): 6.11 µM (active)
IC50 [11]: 23.8 µM (inactive)

O=C(C[C@@H]1C[C@H]2c3cc(NC(=O)c4cccnc4)ccc3O[C@H]2[C@@H](CO)O1)NCc1cc(F)ccc1F
AC50 [12]: 12.6 µM (active)
